In US20040043959A1, “Combination therapies for treating methylthioadenosine phosphorylase deficient cells” (priority 2002, published 2004):

Target: T1, Human MTAP (Homo sapiens, UniProt Q13126)
T1 construct: six-histidine tag (His6) (N); made in house; host or cells: E. coli BL21 DE3
T1 sequence (Q13126 1-283): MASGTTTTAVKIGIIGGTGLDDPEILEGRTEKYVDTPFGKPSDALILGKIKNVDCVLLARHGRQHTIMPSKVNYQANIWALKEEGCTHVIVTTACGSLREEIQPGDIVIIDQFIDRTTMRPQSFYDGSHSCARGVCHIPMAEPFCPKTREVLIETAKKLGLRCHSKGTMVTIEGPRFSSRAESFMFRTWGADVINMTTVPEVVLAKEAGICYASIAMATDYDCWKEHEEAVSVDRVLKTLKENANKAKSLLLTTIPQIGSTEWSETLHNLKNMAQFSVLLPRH
Test: MTAP substrate assay, coupled spectrophotometric (adenine, xanthine oxidase)
Assay type: biochemical
Settings: 2 nM MTAP; for activity at 50 µM: 10 min, compound 50 uM, relative to MTA at 50 uM, read-out: MT-A—50: initial velocity as a percentage of the initial velocity with MTA as substrate; for MT-A—10: initial velocity as a percentage of the initial velocity with MTA as substrate: compound 10 uM, relative to MTA at 10 uM
In short: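 Detection was xanthine oxidase-coupled (0.8 units/ml), reading adenine-derived absorbance at 305 nm over 10 min in potassium phosphate/DTT buffer at 37° C, with N-His6 enzyme purified from E. coli.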

| Compound | activity at 50 µM | MT-A—10: initial velocity as a percentage of the initial velocity with MTA as substrate |
| --- | --- | --- |
| Nc1ncnc2c1ncn2[C@@H]1O[C@H](CSc2ccccc2Br)[C@@H](O)[C@H]1O [2(G)(70), (2R, 3R, 4S, 5S)-2-(6-amino-9H-purin-9-yl)-5-{[(2-bromophenyl)-thio]methyl}tetrahydro-furan-3,4-diol] | 3% | 6% |
| CCC(C)CSC[C@H]1O[C@@H](n2cnc3c(N)ncnc32)[C@H](O)[C@@H]1O (stereo partly drawn) [2(G)(71), (2R, 3R, 4S, 5S)-2-(6-amino-9H-purin-9-yl)-5-{[(2-methylbutyl)-thio]methyl}tetrahydro-furan-3,4-diol] | 73% | 77% |
| Nc1cccc(SC[C@H]2O[C@@H](n3cnc4c(N)ncnc43)[C@H](O)[C@@H]2O)c1 [2(G)(72), (2R, 3R, 4S, 5S)-2-(6-amino-9H-purin-9-yl)-5-{[(3-aminophenyl)thio]-methyl}tetrahydrofuran-3,4-diol] | 38% | 33% |
| Nc1ncnc2c1ncn2[C@@H]1O[C@H](CSCc2ccccc2Cl)[C@@H](O)[C@H]1O [2(G)(73), (2R, 3R, 4S, 5S)-2-(6-amino-9H-purin-9-yl)-5-{[(2-chlorobenzyl)thio]-methyl}tetrahydrofuran-3,4-diol] | 21% | 30% |
| Nc1ncnc2c1ncn2[C@@H]1O[C@H](CSCc2cccc(C(F)(F)F)c2)[C@@H](O)[C@H]1O [2(G)(74)] | 22% | 23% |
| Nc1ncnc2c1ncn2[C@@H]1O[C@H](CSCCCO)[C@@H](O)[C@H]1O [2(G)(75)] | 39% | 32% |
| Nc1ncnc2c1ncn2[C@@H]1O[C@H](CSCc2ccc(Cl)cc2Cl)[C@@H](O)[C@H]1O [2(G)(76), (2R, 3R, 4S, 5S)-2-(6-amino-9H-purin-9-yl)-5-{[(2,4-dichlorobenzyl)-thio]methyl}tetrahydro-furan-3,4-diol] | 11% | 14% |
| CCCC(CCO)SC[C@H]1O[C@@H](n2cnc3c(N)ncnc32)[C@H](O)[C@@H]1O (stereo partly shown) [2(G)(77)] | 6% | 3% |
| Nc1ncnc2c1ncn2[C@@H]1O[C@H](CSCCCCCCO)[C@@H](O)[C@H]1O [2(G)(78)] | 6% | 3% |
| Cc1csc(SC[C@H]2O[C@@H](n3cnc4c(N)ncnc43)[C@H](O)[C@@H]2O)n1 [2(G)(79), (2R, 3R, 4S, 5S)-2-(6-amino-9H-purin-9-yl)-5-{[(4-methyl-1,3-thiozol-2-yl)thio]methyl}tetrahydrofuran-3,4-diol] | 45% | 38% |
| CCc1ccc(SC[C@H]2O[C@@H](n3cnc4c(N)ncnc43)[C@H](O)[C@@H]2O)cc1 [2(G)(80)] | 15% | 13% |
| Nc1ncnc2c1ncn2[C@@H]1O[C@H](CSCCc2c[nH]c3ccccc23)[C@@H](O)[C@H]1O [2(G)(81), (2R, 3R, 4S, 5S)-2-(6-amino-9H-purin-9-yl)-5-({[2-(1H-indol-3-yl)ethyl]thio}methyl)-tetrahydrofuran-3,4-diol] | 18% | 18% |
| Nc1ncnc2c1ncn2[C@@H]1O[C@H](CSc2ccccc2C(F)(F)F)[C@@H](O)[C@H]1O [2(G)(82), (2R, 3R, 4S, 5S)-2-(6-amino-9H-purin-9-yl)-5-({[2-(trifluoromethyl)-phenyl]thio}methyl)tetra-hydrofuran-3,4-diol] | 1% | 1% |
| COc1ccc(CSC[C@H]2O[C@@H](n3cnc4c(N)ncnc43)[C@H](O)[C@@H]2O)c(OC)c1 [2(G)(83), (2R, 3R, 4S, 5S)-2-(6-amino-9H-purin-9-yl)-5-{[(2,4-dimethoxybenzyl)-thio]methyl}tetrahydro-furan-3,4-diol] | 8% | 5% |
| Cc1cc(N)c(SC[C@H]2O[C@@H](n3cnc4c(N)ncnc43)[C@H](O)[C@@H]2O)cc1C [2(G)(84)] | 5% | 4% |
| Nc1ncnc2c1ncn2[C@@H]1O[C@H](CSc2nc3cccnc3s2)[C@@H](O)[C@H]1O [2(G)(85), (2R, 3R, 4S, 5S)-2-(6-amino-9H-purin-9-yl)-5-[([1,3]thiozolo[5,4-b]pyridin-2-ylthio)-methyl]tetrahydrofuran-3,4-diol] | 2% | 10% |
| COc1ccc2sc(SC[C@H]3O[C@@H](n4cnc5c(N)ncnc54)[C@H](O)[C@@H]3O)nc2c1 [2(G)(86), (2R, 3R, 4S, 5S)-2-(6-amino-9H-purin-9-yl)-5-{[(5-methoxy-1,3-benzothiozol-2-yl)thio]-methyl}tetrahydro-furan-3,4-diol] | 33% | 31% |
| Nc1ncnc2c1ncn2[C@@H]1O[C@H](CSc2cccs2)[C@@H](O)[C@H]1O [2(G)(87), (2R, 3R, 4S, 5S)-2-(6-amino-9H-purin-9-yl)-5-[(2-thienylthio)methyl]-tetrahydrofuran-3,4-diol] | 33% | 36% |
| CCOC(=O)CSC[C@H]1O[C@@H](n2cnc3c(N)ncnc32)[C@H](O)[C@@H]1O [2(G)(88), ethyl ({[(2S, 3S, 4R, 5R)-5-(6-amino-9H-purin-9-yl)-3,4-dihydroxytetrahydro-furan-2-yl]methyl}thio)acetate] | 33% | 25% |
| N#Cc1cccnc1SC[C@H]1O[C@@H](n2cnc3c(N)ncnc32)[C@H](O)[C@@H]1O [2(G)(89), 2-({[(2S, 3S, 4R, 5R)-5-(6-amino-9H-purin-9-yl)-3,4-dihydroxytetrahydro-furan-2-yl]methyl}thio)nicotinonitrile] | 5% | 3% |
| Nc1ncnc2c1ncn2[C@@H]1O[C@H](CSc2cccc(C(=O)O)c2)[C@@H](O)[C@H]1O [2(G)(90), 3-({[(2S, 3S, 4R, 5R)-5-(6-amino-9H-purin-9-yl)-3,4-dihydroxytetrahydro-furan-2-yl]methyl}thio)benzoic acid] | 8% | 3% |
| Nc1ncnc2c1ncn2[C@@H]1O[C@H](CSc2ccccc2[N+](=O)[O-])[C@@H](O)[C@H]1O [2(G)(91), (2R, 3R, 4S, 5S)-2-(6-amino-9H-purin-9-yl)-5-{[(2-nitrophenyl)thio]-methyl}tetrahydrofuran-3,4-diol] | 5% | 5% |
| COC(=O)CCSC[C@H]1O[C@@H](n2cnc3c(N)ncnc32)[C@H](O)[C@@H]1O [2(G)(92), methyl 3-({[(2S, 3S, 4R, 5R)-5-(6-amino-9H-purin-9-yl)-dihydroxytetra-hydrofuran-2-yl]-methyl}thio)propanoate] | 36% | 27% |
